Where “and” joins values, the source holds several entries; their conditions need not be identical. Equal values may be shown once.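 Assay format: 96-well plates, 48-hour exposure. GI50 = concentration required for 50% inhibition of growth. TGI marks complete inhibition of growth.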
How the values were obtained:
Test in all cases: NCI tumour cell line growth inhibition, 48 h
MALME-3M melanoma = test system: MALME-3M melanoma
NCI/ADR-RES ovarian = test system: NCI/ADR-RES ovarian
OVCAR-3 ovarian = test system: OVCAR-3 ovarian
PC-3 prostate = test system: PC-3 prostate
RPMI-8226 leukemia = test system: RPMI-8226 leukemia
TK-10 renal = test system: TK-10 renal
OVCAR-8 ovarian = test system: OVCAR-8 ovarian

Structure (SMILES)	GI50 (MALME-3M melanoma)	TGI (MALME-3M melanoma)	GI50 (NCI/ADR-RES ovarian)	TGI (NCI/ADR-RES ovarian)	GI50 (OVCAR-3 ovarian)	TGI (OVCAR-3 ovarian)	GI50 (PC-3 prostate)	TGI (PC-3 prostate)	GI50 (RPMI-8226 leukemia)	TGI (RPMI-8226 leukemia)	GI50 (TK-10 renal)	TGI (TK-10 renal)	TGI (OVCAR-8 ovarian)	GI50 (OVCAR-8 ovarian)
COc1ccc(-n2cc(-c3cc(OC)c(OC)c(OC)c3)[nH]c2=O)cc1Cl	> 100 µM	> 100 µM	> 100 µM	> 100 µM	> 100 µM	> 100 µM	> 100 µM	> 100 µM	> 100 µM	> 100 µM	55.2 µM	> 100 µM	–	–
CN1C(=O)c2ccccc2NC(=O)C12O[C@@H]2c1cccc(O)c1 (some centres undefined)	–	> 100 µM	–	> 100 µM	–	> 100 µM	–	> 100 µM	–	> 100 µM	–	> 100 µM	> 100 µM	–
C=C1CC[C@@H]2[C@](C)(COC(C)=O)[C@H](OC(C)=O)CC[C@@]2(C)[C@@H]1CC(Nc1ccc(S(=O)(=O)Nc2ncccn2)cc1)C1=CCOC1=O (some centres undefined)	–	–	1.83 µM	5.28 µM	1.21 µM	2.54 µM	2.11 µM	5.07 µM	0.541 µM	3.12 µM	2.77 µM	6.03 µM	3.55 µM	1.48 µM
CC(C)CCCC(=O)CCCCCCC(=O)CCN(O)C(=O)C(N)CO (centres undefined)	–	36.6 µM	–	38.4 µM	–	41.6 µM	–	28.2 µM	–	57.5 µM	–	32.2 µM	39.3 µM	–
Nc1nc(-c2cccc(Cl)c2)c(-c2ccc3ncccc3n2)s1	> 25 µM	> 25 µM	> 25 µM	> 25 µM	> 25 µM	> 25 µM	> 25 µM	> 25 µM	> 25 µM	> 25 µM	> 17.2 µM	> 25 µM	> 25 µM	> 25 µM
COc1ccc(C2SCC(=O)N2NC(=O)Nc2c(C)nc3ccccn23)cc1 (centres undefined)	–	–	40.2 µM	> 100 µM	> 100 µM	> 100 µM	77.2 µM	> 100 µM	> 100 µM	> 100 µM	22.6 µM	49 µM	> 100 µM	40.2 µM
COc1ccc(-c2nnc(COc3ccc(NC(=O)Nc4ccc(Cl)c(C(F)(F)F)c4)cc3F)o2)cc1	2.72 µM	7.63 µM	3.28 µM	> 100 µM	3.02 µM	10.5 µM	1.84 µM	12.7 µM	1.53 µM	5 µM	9.09 µM	41.4 µM	15.8 µM	3.12 µM
O=C(/C(=C/c1cccc([N+](=O)[O-])c1)c1ccccc1)c1ccccc1	2.32 µM	5.81 µM	2.98 µM	> 100 µM	3.66 µM	10.9 µM	4.54 µM	36.2 µM	2.34 µM	7.68 µM	4.19 µM	21.4 µM	–	–
CCc1oc2ccccc2c1C(=O)c1cc(I)c(O)c(I)c1	1.41 µM	7.9 µM	1.49 µM	5.25 µM	2.04 µM	5.12 µM	3.75 µM	19.5 µM	2.33 µM	30.5 µM	9.81 µM	23.4 µM	28.5 µM	4.9 µM
CCC(=O)c1c(C(F)(F)F)n([O-])c2ccc(C)cc2[n+]1=O	–	–	6.14 µM	36.5 µM	3.88 µM	15 µM	2.27 µM	15.1 µM	12.4 µM	> 50 µM	0.812 µM	6.61 µM	> 50 µM	2.83 µM
CCCCN1CSC(=S)N(Cc2ccccc2)C1	–	> 93.5 µM	–	> 100 µM	–	> 69.8 µM	–	> 100 µM	–	59 µM	–	> 100 µM	> 100 µM	–
CC1(C)N=C(N)N=C(N)N1c1ccc(OCc2ccc(S(=O)(=O)F)c(Cl)c2)c(Cl)c1	1.97 µM	> 100 µM	60 µM	> 100 µM	4.69 µM	> 100 µM	0.502 µM	> 100 µM	> 100 µM	> 100 µM	59.2 µM	> 100 µM	> 100 µM	0.735 µM
Cn1cnc([N+](=O)[O-])c1[Se]c1nc(N)nc2c1ncn2C1OC(CO)C(O)C1O (centres undefined)	–	> 100 µM	–	> 100 µM	–	> 100 µM	–	> 100 µM	–	> 100 µM	–	> 100 µM	> 100 µM	–
O=C1/C(=C/c2ccc(O)cc2)CSc2ccc(Cl)cc21	16.6 µM	38 µM	18.7 µM	> 100 µM	5.69 µM	19.4 µM	13.1 µM	53.8 µM	3.62 µM	> 100 µM	15.6 µM	34.2 µM	> 100 µM	11.1 µM
Cc1nc(-c2ccccc2)c(-c2ccccc2)s1	–	46.8 µM	–	65.4 µM	–	87.4 µM	–	47.1 µM	–	37.5 µM	–	52.8 µM	> 100 µM	–
COc1cc2c(c(OC)c1OC)-c1c(cc3c(c1OC)OCO3)C1OC2C(C)C1C (centres undefined) (tested in a mixture with another compound)	–	> 100 µM	–	–	–	> 100 µM	–	> 100 µM	–	> 100 µM	–	> 100 µM	> 100 µM	–
CSc1nc2cc(S(=O)(=O)N3CCCCC3)ccc2s1	–	> 100 µM	–	> 100 µM	–	> 100 µM	–	> 100 µM	–	> 100 µM	–	> 100 µM	> 100 µM	–
Cc1ccc(C(=O)Nc2ccc(CN3CCN(C)CC3)c(C(F)(F)F)c2)cc1C#Cc1cnc(N)c2ccccc12	0.248 µM	0.951 µM	0.594 µM	1.82 µM	0.578 µM	1.35 µM	0.703 µM	1.72 µM	0.736 µM	2.08 µM	0.562 µM	1.36 µM	2.09 µM	0.476 µM
CC[CH2][Sn]([Cl])([Cl])[CH2]CC.Oc1ccccc1C=NCCN=Cc1ccccc1O	1.57 µM	4.61 µM	16 µM	37.8 µM	9.29 µM	21.4 µM	6.28 µM	22.7 µM	3.35 µM	8.33 µM	–	–	27.7 µM	12.3 µM
NCCCn1c2c(c3ccc([N+](=O)[O-])cc3c1=O)C(=O)c1cc(Br)ccc1-2	0.103 µM	–	0.0352 µM	0.203 µM and 0.206 µM	0.254 µM	–	0.101 µM and 0.0286 µM	0.412 µM and 0.312 µM	–	–	0.267 µM and 0.28 µM	0.942 µM	0.188 µM	0.0271 µM

From PubChem BioAssay (NCI)
